In patent publication US11029285B2, “Real-time and quantitative measurement method for cell traction force” (HUNAN AGRICULTURAL UNIVERSITY, priority 2016, dated 2021):

Columns and labels:
Type in all cases: cell-based
[1] = test system: human umbilical vein endothelial cells; assay: Double resonator QCM cell traction force of HUVECs on KRGD or fibronectin modified crystals under blebbistatin or nocodazole; conditions: 20,000 HUVECs
Description: (§1) The Steps for Measuring the Cell Traction Force with AT-Cut and BT-Cut Quartz Crystals Modified with Specific Cell Adhesion Molecules RGD and Fibronectin are as Follows:
(§2) 1) cleaning with anhydrous ethanol and Millipore water, and blowing AT-cut and BT-cut 9 MHz crystals with nitrogen;
2) dripping 1 drop of Piranha solution (80° C. 1:3 (v:v) 30% H2O2:H2SO4) to the quartz crystal gold electrode for treating 30 s, rinsing with Millipore water and anhydrous ethanol, blowing with nitrogen, and repeating 3 times. […] Adding 20,000 HUVEC or H9C2 cells, and starting QCM for monitoring; 8) collecting the medium after the experiment, gently wash with PBS, adding trypsin for digestion, and measuring the cells in the collected fraction with a cytometer; and 9) Quantitatively estimating the dynamic change ΔS in the cell traction force during the cell adhesion process according to the frequency shifts Δft^AT and Δft^BT of the AT-cut and BT-cut quartz crystals modified with the same concentration of RGD or fibronectin at the time t based on formula (2). […]

[2] = test system: human umbilical vein endothelial cells; assay: QCM response and cell traction force during adhesion of HUVECs to fibronectin modified gold electrodes
Description: as §1, §2
2) dripping 1 drop of Piranha solution (80° C. 1:3 (v:v) 30% H2O2:H2SO4) to the quartz crystal gold electrode for treating 30 s, rinsing with Millipore water and anhydrous ethanol, blowing with nitrogen, and repeating 3 times. Dripping the anhydrous ethanol onto the electrode to stand for a few minutes, rinsing with sterile water, and blowing with nitrogen; 3) installing the surface treated AT-cut and BT-cut quartz crystals into Teflon well cells; 4) adding a mixed anhydrous ethanol solution of 20 mM 3-mercaptopropionic acid and 1 mM triethylene glycol mono-11-mercaptoundecyl ether to the Teflon cell at room temperature, and standing overnight in the dark; 5) taking out the solution, and rinsing with sterile water; adding a PBS buffer solution (pH=5.5) with 150 mM EDC and 30 mM NHS dissolved therein, and standing for about 30 min; 6) taking out the solution, and rinsing with PBS buffer solution (pH=5.5) and sterile water; adding a PBS solution of KRGD or fibronectin of different concentrations, and standing for 1-2 h (RGDK) or overnight (fibronectin); 7) taking out the solution, and rinsing with sterilized PBS and sterile water to obtain KRGD or fibronectin modified gold electrodes. Adding 20,000 HUVEC or H9C2 cells, and starting QCM for monitoring; 8) collecting the medium after the experiment, gently wash with PBS, adding trypsin for digestion, and measuring the cells in the collected fraction with a cytometer; and 9) Quantitatively estimating the dynamic change ΔS in the cell traction force during the cell adhesion process according to the frequency shifts Δft^AT and Δft^BT of the AT-cut and BT-cut quartz crystals modified with the same concentration of RGD or fibronectin at the time t based on formula (2).
However, as the adhesion time increases, the surface of the electrode may adsorb adherent factors beneficial to cell adhesion and extracellular matrix factors secreted by the cells, so that ΔS changes positively, and the cells are gradually spread and are finally close to the value of the cell traction force on the gold electrode modified at the low FN concentration (10 μg/mL).

[3] = test system: human umbilical vein endothelial cells; assay: Double resonator QCM cell traction force of 50,000 HUVECs on bare gold electrodes under EGTA
Source text: (§3) The steps for measuring the cell traction force by using bare gold electrode AT-cut and BT-cut quartz crystals are as follows:
(§4) 4) checking to make sure that the 8-channel QCM instrument QCA922 has crystal resonant frequency and dynamic resistance outputs, connecting detection cells in turn, determining that each detection cell (e.g., two AT-cut crystal detection cells, two BT-cut crystal detection cells) works, and starting the software to acquire data; 5) removing the sterilized water after the data corresponding to each channel is stable, cleaning twice with sterilized water, then cleaning with PBS, add 52 μL of DMEM medium containing fetal bovine serum, and acquiring QCM resonant frequency (f) and dynamic resistance (R) data for 2 h; adding 250 μL of medium containing a certain number (e.g., 20,000) of H9C2 rat cardiomyocytes or human umbilical vein endothelial cells (HUVECs), continuously acquiring f and R data for about 20 h. The QCM relative frequency shift Δf and dynamic resistance change ΔR of each channel caused by the adhesion of cells at different adhesion time are determined by subtracting the corresponding QCM stable values in media of the channel at the time (t). 6) After the experiment, collecting the medium, gently washing with PBS, adding trypsin for digestion, and counting the cells in the collected fraction with a cytometer; 7) Quantitatively measuring the dynamic change ΔS in the cell traction force during the cell adhesion process according to the frequency shifts Δft^AT and Δft^BT of the paired AT-cut and BT-cut quartz crystals at the time t: ΔSt=(KAT−KBT)^−1[tq^ATΔft^AT/fr^AT−tq^BTΔft^BT/fr^BT] (1),
in which, ΔSt is the traction force of cells at the adhesion time t; KAT=2.75×10^−12 cm^2 dyn^−1 and KBT=−2.65×10^−12 cm^2dyn^−1 are stress coefficients of the AT-cut and BT-cut quartz crystals of given crystal orientations, respectively, and are constants. fr^AT and fr^BT are the resonant frequencies of the AT-cut and BT-cut quartz crystals, respectively; tq^AT and tq^BT are the thicknesses of the AT-cut and BT-cut quartz crystals, respectively, and are constants. Therefore, the surface stress or traction force applied to the crystal by cells in the adhesion process or under the action of a drug can be quantitatively measured according to the frequency shifts Δft^AT, Δft^BT (in Hz) of the AT-cut crystal, the BT-cut crystal at any time t relative to its reference point (e.g., a stabile value in the medium or a stabile value before dosing) based on formula (1). The frequency of the quartz crystal is a digital signal, which can be easily, quickly and continuously acquired or measured by a frequency counting device or a QCM special instrument. […]

[4] = test system: human umbilical vein endothelial cells; assay: Cell morphology simulation experiments under EGTA; conditions: after the EGTA treatments for five minutes
H9C2 rat cardiomyocytes = assay: Double resonator QCM (AT-cut/BT-cut) cell traction force of H9C2 rat cardiomyocytes under inotropic drugs; conditions: 20,000 H9C2 cells on bare gold
Description: as §3
1) dripping 1 drop of Piranha solution (80° C. 1:3 (v:v) 30% H2O2:H2SO4) to the center of each quartz crystal gold electrode for about 30 s, then rinsing with distilled water, drying with nitrogen, and repeating this step by 3 times;
2) assembling the crystals in a Teflon well cell;
3) cleaning the Teflon cell twice with distilled water, then adding about 300 μL of sterilized water, and putting into a 5% CO2 incubator at 37° C.;
as §4
(§5) in which, ΔSt is the traction force of cells at the adhesion time t; KAT=2.75×10^−12 cm^2 dyn^−1 and KBT=−2.65×10^−12 cm^2dyn^−1 are stress coefficients of the AT-cut and BT-cut quartz crystals of given crystal orientations, respectively, and are constants. fr^AT and fr^BT are the resonant frequencies of the AT-cut and BT-cut quartz crystals, respectively; tq^AT and tq^BT are the thicknesses of the AT-cut and BT-cut quartz crystals, respectively, and are constants. Therefore, the surface stress or traction force applied to the crystal by cells in the adhesion process or under the action of a drug can be quantitatively measured according to the frequency shifts Δft^AT, Δft^BT (in Hz) of the AT-cut crystal, the BT-cut crystal at any time t relative to its reference point (e.g., a stabile value in the medium or a stabile value before dosing) based on formula (1). The frequency of the quartz crystal is a digital signal, which can be easily, quickly and continuously acquired or measured by a frequency counting device or a QCM special instrument. The crystal frequency used in the experiment of the present disclosure is 9 MHz, where tq^AT=0.0185 cm, and tq^BT=0.0282 cm. Thus, formula (1) can be simplified as: ΔSt=2.058×10^4(0.0185Δft^AT−0.0282Δft^BT) (2)
Experimental Steps for Effects of Cardiovascular Stimulating Drug Isoprenaline (ISO) and Inhibitory Drug Verapamil (VRP) on Traction Force of H9C2 Rat Cardiomyocytes
Take four Teflon well cells, two identical 9 MHz AT-cut gold electrode crystals and two identical 9 MHz BT-cut gold electrode crystals. […]

[5] = test system: human umbilical vein endothelial cells; assay: Double resonator QCM cell traction force of HUVECs on bare gold electrodes under thrombin or Y-27632; conditions: 20,000 HUVECs on bare gold
Source text: as §3, §4, §5
Experimental Steps for Effects for Vascular Endothelial Barrier Function Destruction Drug Thrombin and Protective Drug Y-27632 on Traction Force of Human Umbilical Vein Endothelial Cells
Take four Teflon well cells, two identical 9 MHz AT-cut gold electrode crystals and two identical 9 MHz BT-cut gold electrode crystals. Based on the aforementioned steps of measuring the cell traction force with bare gold electrode AT-cut and BT-cut quartz crystals, add 300 μL DMEM medium to the four Teflon cells respectively, and collect data for about 2 h; add 300 μL of mediums containing 20,000 human umbilical vein endothelial cells respectively, collect data for about 24 h, then add the drugs thrombin and Y-27632 to the final concentrations, and continue to collect data for about 24 h.

[6] = electrode modified at 30 μg/mL, 40 μg/mL FN

**Q.** For Cc1ccc2c(c1)C(=O)C1(O)CCN(c3ccccc3)C1=N2 (stereo not shown) [blebbistatin], which “cell traction force ΔS” value ([1]; crystals modified at 50 μg/mL KRGD, 1.22 μM blebbistatin) is on record?
**A.** Its value is “decreases”.

**Q.** With fibronectin [FN] as the compound, how does the “cell traction force ΔS (sign)” value ([2]; 20,000 HUVECs, gold electrode modified with FN, DMEM with 2% fetal bovine serum) read?
**A.** The value was “positive”.

**Q.** What about the “cell traction force, compared among FN concentrations” value ([2]; electrode modified at 10 μg/mL FN) of the same compound?
**A.** Its value is “close and the least”.

**Q.** And the “ΔS, compared among FN concentrations” value ([2]; electrode modified at 20 μg/mL FN, tested 0, 10, 20, 30, 40, 50 μg/mL)?
**A.** Its value is “maximum and stable”.

**Q.** What about the “QCM frequency shift and dynamic resistance change responses, compared among FN concentrations” value [2, 6] of the same compound?
**A.** Its value is “medium”.

**Q.** What about the “ΔS response over time” value [2, 6] of the same compound?
**A.** The value was “increases fastest at the beginning, but fluctuates with time and attenuates to some extent”.

**Q.** What about the “cell traction force, compared among FN concentrations” value ([2]; electrode modified at 50 μg/mL FN) of the same compound?
**A.** The value was “close and the least”.

**Q.** Which results are given for O=C(O)CN(CCOCCOCCN(CC(=O)O)CC(=O)O)CC(=O)O [EGTA]?
**A.** cell traction force in the initial phase ([3]; 1 mM EGTA): did not decrease but increase slightly; cell generated force with the increase of EGTA time ([3]; 10 mM EGTA): decreases; cell generated force with the increase of EGTA time ([3]; 50 mM EGTA, compared with 10 mM): decreases more quickly; overall cell traction force ([3]; after different concentrations of EGTA (1, 10, 50 mM) are added): shows a tendency to decrease; cell spreading area [4]: became smaller

**Q.** Which results are given for COc1ccc(CCN(C)CCCC(C#N)(c2ccc(OC)c(OC)c2)C(C)C)cc1OC (stereo not shown) [VRP, verapamil]?
**A.** QCM frequency f of AT-cut and BT-cut crystals (H9C2 rat cardiomyocytes; VRP final concentration 25 nM): increased; cell traction force ΔS (H9C2 rat cardiomyocytes; VRP final concentration 25 nM): increases and changes positively; dynamic resistance R of AT-cut and BT-cut crystals (H9C2 rat cardiomyocytes; VRP final concentration 25 nM): decreased

**Q.** Which “QCM frequency f of AT-cut and BT-cut crystals” value (H9C2 rat cardiomyocytes; ISO final concentration 125 nM) does the source give for CC(C)NCC(O)c1ccc(O)c(O)c1 (stereo not shown) [ISO, isoprenaline] here?
**A.** The value was “decreased”.

**Q.** What about the “cell traction force ΔS” value (H9C2 rat cardiomyocytes; ISO final concentration 125 nM) of the same compound?
**A.** Its value is “decreases and changes negatively”.

**Q.** And the “dynamic resistance R of AT-cut and BT-cut crystals” value (H9C2 rat cardiomyocytes; ISO final concentration 125 nM)?
**A.** Its value is “increased”.

**Q.** COC(=O)Nc1nc2ccc(C(=O)c3cccs3)cc2[nH]1 [nocodazole] was tested. Which “cell traction force ΔS” value ([1]; crystals modified at 20 μg/mL fibronectin, 0.5 μM nocodazole) did it give?
**A.** Its value is “increases at the beginning and then decreases”.

**Q.** Which cell traction force ([5]; 0.5 μM Y-27632) does the source give for C[C@@H](N)[C@H]1CC[C@H](C(=O)Nc2ccncc2)CC1 [Y-27632] here?
**A.** The cell traction force was “decreases”.

**Q.** What about the dynamic resistance ([5]; 0.5 μM Y-27632) of the same compound?
**A.** Its dynamic resistance is “decreases”.

**Q.** What about the “frequency shift of the crystals” value ([5]; 0.5 μM Y-27632) of the same compound?
**A.** Its value is “decreases”.

**Q.** How did the cell traction force ([5]; 0.1 unit/mL thrombin) turn out when thrombin was run?
**A.** The cell traction force was “increases”.

**Q.** And the dynamic resistance ([5]; 0.1 unit/mL thrombin)?
**A.** Its dynamic resistance is “increases slightly”.

**Q.** And the “frequency shift of the crystals” value ([5]; 0.1 unit/mL thrombin)?
**A.** The value was “decreases”.
